Measurements taken from BindingDB's records for doi:10.7270/Q2H70D5W (University of Pittsburgh, 2007).

Target: Gag-Pol polyprotein (Human immunodeficiency virus type 1 group M subtype B (isolate HXB2), UniProt P04585)
Assay: HIV-1 RT RNase H inhibitor potency, dose response, biochemical, probe assessment (AID 652)
Conditions: pH 8; 23 °C

SMILES | IC50 [µM]
CCOC(=O)c1c(NC(=O)c2cc(C3CC3)on2)sc2c1CCCC2 [2-[(5-cyclopropylisoxazole-3-carbonyl)amino]-4,5,6,7-tetrahydrobenzothiophene-3-carboxylic acid ethyl ester] | 1.7
Cc1cc(NC(=O)CSc2nc3cc4c(cc3c(=O)n2CCc2ccccc2)OCO4)no1 [2-[(8-keto-7-phenethyl-[1,3]dioxolo[4,5-g]quinazolin-6-yl)thio]-N-(5-methylisoxazol-3-yl)acetamide] | 4.79
COC(=O)c1ccc2c(=O)n(Cc3ccco3)c(SCC(=O)Nc3ccccc3Cl)nc2c1 [2-[[2-(2-chloroanilino)-2-keto-ethyl]thio]-3-(2-furfuryl)-4-keto-quinazoline-7-carboxylic acid methyl ester] | 4.65
COC(=O)c1ccccc1NC(=O)c1ccc2c(c1)C(=O)N(Cc1ccco1)C2=O [2-[[2-(2-furfuryl)-1,3-diketo-isoindoline-5-carbonyl]amino]benzoic acid methyl ester] | 7.36
COC(=O)c1ccc2c(=O)n(Cc3ccco3)c(SCC(=O)Nc3ccc(C)c(Cl)c3)nc2c1 [2-[[2-(3-chloro-4-methyl-anilino)-2-keto-ethyl]thio]-3-(2-furfuryl)-4-keto-quinazoline-7-carboxylic acid methyl ester] | 2.79
CCc1ccc(NC(=O)CSc2nc3cc(C(=O)OC)ccc3c(=O)n2Cc2ccco2)cc1 [2-[[2-(4-ethylanilino)-2-keto-ethyl]thio]-3-(2-furfuryl)-4-keto-quinazoline-7-carboxylic acid methyl ester] | 2.32
Cc1cccc(-c2nsc(SCC(=O)Nc3nccs3)n2)c1 [2-[[3-(3-methylphenyl)-1,2,4-thiadiazol-5-yl]sulfanyl]-N-(1,3-thiazol-2-yl)acetamide] | 3.81
CCOC(=O)CSc1nc2cc(C(=O)NCc3ccco3)ccc2c(=O)n1-c1ccc(F)cc1 [2-[[3-(4-fluorophenyl)-7-(2-furfurylcarbamoyl)-4-keto-quinazolin-2-yl]thio]acetic acid ethyl ester] | 13.1
COc1ccc(-c2nsc(SCC(=O)Nc3cc(C)on3)n2)cc1 [2-[[3-(4-methoxyphenyl)-1,2,4-thiadiazol-5-yl]sulfanyl]-N-(5-methyl-1,2-oxazol-3-yl)acetamide] | 3.01
Cc1ccccc1NC(=O)CSc1nc2c(c(-c3ccco3)c1C#N)CCCC2 [2-[[3-cyano-4-(2-furanyl)-5,6,7,8-tetrahydroquinolin-2-yl]thio]-N-(2-methylphenyl)acetamide] | 5.23
N#Cc1c(SCC(=O)Nc2nccs2)nc2c(c1-c1ccco1)CCCC2 [2-[[3-cyano-4-(2-furanyl)-5,6,7,8-tetrahydroquinolin-2-yl]thio]-N-(2-thiazolyl)acetamide] | 4.3
CCOC(=O)CSc1nc2cc(C(=O)NCc3ccco3)ccc2c(=O)n1C1CCCCC1 [2-[[3-cyclohexyl-7-(2-furfurylcarbamoyl)-4-keto-quinazolin-2-yl]thio]acetic acid ethyl ester] | 6.07
CCOC(=O)c1c(NC(=O)c2ccc(-n3cnnn3)cc2)sc2c1CCCC2 [2-[[4-(tetrazol-1-yl)benzoyl]amino]-4,5,6,7-tetrahydrobenzothiophene-3-carboxylic acid ethyl ester] | 2.81
CC(C)OC(=O)CSc1nnc(-c2ccc(C(C)(C)C)cc2)n1N [2-[[4-amino-5-(4-tert-butylphenyl)-1,2,4-triazol-3-yl]thio]acetic acid isopropyl ester] | > 50
Cc1cc(C(=O)CSc2nnc(-c3ccc(OC(F)F)cc3)o2)c(C)n1Cc1cccs1 [2-[[5-[4-(difluoromethoxy)phenyl]-1,3,4-oxadiazol-2-yl]sulfanyl]-1-[2,5-dimethyl-1-(thiophen-2-ylmethyl)pyrrol-3-yl]ethanone] | 1.88
C=CCNC(=O)c1c(N)n(-c2ccc3c(c2)OCO3)c2nc3ccccc3nc12 [2-amino-1-(1,3-benzodioxol-5-yl)-N-prop-2-enyl-3-pyrrolo[3,2-b]quinoxalinecarboxamide] | 32.7
CCOC(=O)c1c(N)sc2c1CCC1C(=O)N(C3CCCCC3)C(=O)C21 (centres undefined) [2-amino-7-cyclohexyl-6,8-diketo-4,5,5a,8a-tetrahydrothien[2,3-e]isoindole-3-carboxylic acid ethyl ester] | 4.84
CSc1ccc(C2c3ccc(=O)c4c(C)oc(C)c4c3OC(=N)C2C#N)cc1 (centres undefined) [2-amino-7-keto-8,10-dimethyl-4-[4-(methylthio)phenyl]-4H-furo[1,2]cyclohepta[4,6-d]pyran-3-carbonitrile] | 5.81
CC(C)CNC(=O)c1c(N)n(N=Cc2ccccn2)c2nc3ccccc3nc12 [2-amino-N-(2-methylpropyl)-1-(2-pyridinylmethylideneamino)-3-pyrrolo[3,2-b]quinoxalinecarboxamide] | 9.34
Cc1cc(C)c(C#N)c(=N)o1 [2-azanylidene-4,6-dimethyl-pyran-3-carbonitrile] | 0.298
Cc1cccc(C(=O)OCC(=O)Nc2ccc(N3CCCCC3)cc2)c1O [2-hydroxy-3-methyl-benzoic acid [2-keto-2-(4-piperidinoanilino)ethyl] ester] | 13.2
O=C(O)c1cc(S(=O)(=O)Nc2ccc3oc(=O)sc3c2)ccc1O [2-hydroxy-5-[(2-keto-1,3-benzoxathiol-5-yl)sulfamoyl]benzoic acid] | 7.39

SMILES | IC50 [µM]
O=C(c1ccc2c3c(cccc13)C(=O)N(O)C2=O)N1CCCCC1 [2-hydroxy-6-(piperidine-1-carbonyl)benzo[de]isoquinoline-1,3-dione] | 4.19
Cc1cc(-c2nn3c(-c4ccccc4)nnc3s2)c2ccccc2n1 [2-methyl-4-(3-phenyl[1,2,4]triazolo[3,4-b][1,3,4]thiadiazol-6-yl)quinoline] | 2.6
O=C(O)/C=C/c1ccc(O)c(O)c1 [3,4-Dihydroxycinnamate, XVII] | > 50
c1ccc(-c2ccc(-c3ccccn3)nn2)nc1 [3,6-bis(2-pyridinyl)pyridazine] | 15.4
c1ccc2c(c1)ncn2Cc1nnc2sc(-c3ccc4c(c3)OCO4)nn12 [3-(1-benzimidazolylmethyl)-6-(1,3-benzodioxol-5-yl)-[1,2,4]triazolo[3,4-b][1,3,4]thiadiazole] | 1.23
c1ccc(Cc2nn3c(Cn4nnc5ccccc54)nnc3s2)cc1 [3-(1-benzotriazolylmethyl)-6-(phenylmethyl)-[1,2,4]triazolo[3,4-b][1,3,4]thiadiazole] | 1.84
c1ccc2c(c1)nnn2Cc1nnc2sc(-c3ccncc3)nn12 [3-(1-benzotriazolylmethyl)-6-pyridin-4-yl-[1,2,4]triazolo[3,4-b][1,3,4]thiadiazole] | 2.1
c1csc(-c2nn3c(C4COc5ccccc5O4)nnc3s2)c1 (centres undefined) [3-(2,3-dihydro-1,4-benzodioxin-2-yl)-6-(2-thienyl)[1,2,4]triazolo[3,4-b][1,3,4]thiadiazole] | 1.21
COc1ccc(N2CSC3=C(C#N)C(c4cc(OC)ccc4OC)CC(=O)N3C2)c(OC)c1 (centres undefined) [3-(2,4-dimethoxyphenyl)-8-(2,5-dimethoxyphenyl)-6-keto-2,4,7,8-tetrahydropyrido[2,1-b][1,3,5]thiadiazine-9-carbonitrile] | 2.9
COc1ccc(N2CSC3=C(C#N)C(c4ccc(OC)c(OC)c4)CC(=O)N3C2)c(OC)c1 (centres undefined) [3-(2,4-dimethoxyphenyl)-8-(3,4-dimethoxyphenyl)-6-oxidanylidene-2,4,7,8-tetrahydropyrido[2,1-b][1,3,5]thiadiazine-9-carbonitrile] | 17.8
CCOc1ccccc1N1CSC2=C(C#N)C(c3c(OC)ccc4ccccc34)CC(=O)N2C1 (centres undefined) [3-(2-ethoxyphenyl)-8-(2-methoxy-1-naphthalenyl)-6-oxo-2,4,7,8-tetrahydropyrido[2,1-b][1,3,5]thiadiazine-9-carbonitrile] | 2.18
CCc1ccccc1N1CSC2=C(C#N)C(c3cc(OC)c(OC)cc3OC)CC(=O)N2C1 (centres undefined) [3-(2-ethylphenyl)-6-oxidanylidene-8-(2,4,5-trimethoxyphenyl)-2,4,7,8-tetrahydropyrido[2,1-b][1,3,5]thiadiazine-9-carbonitrile] | 2.91
CCc1ccccc1N1CSC2=C(C#N)C(c3ccccc3F)CC(=O)N2C1 (centres undefined) [3-(2-ethylphenyl)-8-(2-fluorophenyl)-6-keto-2,4,7,8-tetrahydropyrido[2,1-b][1,3,5]thiadiazine-9-carbonitrile] | 1.22
CN(C)c1ccc2c(c1)N=C(c1ccco1)OP2(=S)N1CCOCC1 (centres undefined) [3-(2-furanyl)-N,N-dimethyl-1-(4-morpholinyl)-1-sulfanylidene-2,4,1-benzoxazaphosphorin-6-amine] | 1.66
COc1ccccc1N1CSC2=C(C#N)C(c3ccc(SC)cc3)CC(=O)N2C1 (centres undefined) [3-(2-methoxyphenyl)-8-(4-methylsulfanylphenyl)-6-oxidanylidene-2,4,7,8-tetrahydropyrido[2,1-b][1,3,5]thiadiazine-9-carbonitrile] | 2.59
COc1cc(C2CC(=O)N3CN(c4ccccc4C)CSC3=C2C#N)cc(OC)c1OC (centres undefined) [3-(2-methylphenyl)-6-oxidanylidene-8-(3,4,5-trimethoxyphenyl)-2,4,7,8-tetrahydropyrido[2,1-b][1,3,5]thiadiazine-9-carbonitrile] | 4.1
CC(=O)C(C(C)=O)c1c(Cl)c(O)c(O)c2c(C(=O)c3ccccc3)coc12 [3-(3-benzoyl-6-chloro-4,5-dihydroxy-1-benzofuran-7-yl)pentane-2,4-dione] | 0.384
CC(C)(C)c1ccc(-c2nnc3sc(-c4ccncc4)nn23)cc1 [3-(4-tert-butylphenyl)-6-(4-pyridinyl)[1,2,4]triazolo[3,4-b][1,3,4]thiadiazole] | 6.18
CN(C)c1cccc(C(=O)Nc2cccc(F)c2)c1 [3-(dimethylamino)-N-(3-fluorophenyl)benzamide] | 12.2
c1ccc(Cc2nn3c(COc4ccccc4)nnc3s2)cc1 [3-(phenoxymethyl)-6-(phenylmethyl)-[1,2,4]triazolo[3,4-b][1,3,4]thiadiazole] | 1.36
COc1cc(-c2nn3c(Cc4ccccc4)nnc3s2)cc(OC)c1OC [3-(phenylmethyl)-6-(3,4,5-trimethoxyphenyl)-[1,2,4]triazolo[3,4-b][1,3,4]thiadiazole] | 4.78
c1ccc(Cc2nnc3sc(-c4ccncc4)nn23)cc1 [3-(phenylmethyl)-6-pyridin-4-yl-[1,2,4]triazolo[3,4-b][1,3,4]thiadiazole] | 1.81
